Experimental data reported in patent US8217035B2, “Pyrimidine derivatives used as PI-3-kinase inhibitors” (Novartis AG, priority 2006, dated 2012).
pIC50: −log10 of the molar value.

target: PI3 kinase alpha (Homo sapiens, UniProt P42336); experiment: PI3K ATP depletion assay (Biological Method 1, Assay 3; KinaseGlo luminescence); type: biochemical; settings: not given
Description: The PI3 kinase alpha IC50 values shown in Table 1 were determined according to the ATP depletion assay as disclosed herein in Biological Method 1.
Assay 3: ATP Depletion Assay
Compounds to be tested are dissolved in DMSO and directly distributed into a black 384-well plate at 1.25 μL per well. To start the reaction, 25 μL of 10 nM PI3 kinase and 5 μg/mL 1-alpha-phosphatidylinositol (PI) are added into each well followed by 25 μL of 2 μM ATP. The reaction is performed until approx 50% of the ATP is depleted, and then stopped by the addition of 25 μL of KinaseGlo solution purchased from Promega. The stopped reaction is incubated for 5 minutes and the remaining ATP is then detected via luminescence.

Chain of PI3 kinase alpha (P42336 whole entry): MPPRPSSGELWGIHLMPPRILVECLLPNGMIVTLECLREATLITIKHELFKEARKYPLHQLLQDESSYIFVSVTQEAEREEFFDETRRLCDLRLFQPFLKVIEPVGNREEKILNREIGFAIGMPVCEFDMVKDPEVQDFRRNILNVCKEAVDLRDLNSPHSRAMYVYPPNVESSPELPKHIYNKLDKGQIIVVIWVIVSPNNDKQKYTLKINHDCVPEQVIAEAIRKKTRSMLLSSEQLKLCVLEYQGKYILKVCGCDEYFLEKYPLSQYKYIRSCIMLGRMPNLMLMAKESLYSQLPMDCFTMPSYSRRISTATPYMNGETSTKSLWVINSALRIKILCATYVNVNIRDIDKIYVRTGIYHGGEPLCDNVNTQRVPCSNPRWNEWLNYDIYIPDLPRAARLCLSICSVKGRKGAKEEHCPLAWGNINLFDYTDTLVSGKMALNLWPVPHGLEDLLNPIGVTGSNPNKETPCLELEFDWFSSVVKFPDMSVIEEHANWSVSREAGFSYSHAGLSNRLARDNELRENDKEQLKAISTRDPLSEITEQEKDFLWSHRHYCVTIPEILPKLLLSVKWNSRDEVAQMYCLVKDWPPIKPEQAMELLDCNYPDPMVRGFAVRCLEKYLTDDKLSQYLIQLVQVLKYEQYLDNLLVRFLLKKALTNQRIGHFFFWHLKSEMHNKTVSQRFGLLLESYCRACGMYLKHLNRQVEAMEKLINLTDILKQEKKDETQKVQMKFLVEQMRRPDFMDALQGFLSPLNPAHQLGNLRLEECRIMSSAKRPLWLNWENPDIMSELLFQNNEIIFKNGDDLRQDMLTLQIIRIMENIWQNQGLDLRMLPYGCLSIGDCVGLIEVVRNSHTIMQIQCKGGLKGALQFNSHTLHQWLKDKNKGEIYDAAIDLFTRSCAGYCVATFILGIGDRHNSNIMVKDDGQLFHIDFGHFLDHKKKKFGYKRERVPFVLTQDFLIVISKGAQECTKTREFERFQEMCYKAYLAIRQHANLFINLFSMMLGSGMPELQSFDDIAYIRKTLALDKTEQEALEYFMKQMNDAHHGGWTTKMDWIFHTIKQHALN
Chain of PI3 kinase alpha (P27986 whole entry partner): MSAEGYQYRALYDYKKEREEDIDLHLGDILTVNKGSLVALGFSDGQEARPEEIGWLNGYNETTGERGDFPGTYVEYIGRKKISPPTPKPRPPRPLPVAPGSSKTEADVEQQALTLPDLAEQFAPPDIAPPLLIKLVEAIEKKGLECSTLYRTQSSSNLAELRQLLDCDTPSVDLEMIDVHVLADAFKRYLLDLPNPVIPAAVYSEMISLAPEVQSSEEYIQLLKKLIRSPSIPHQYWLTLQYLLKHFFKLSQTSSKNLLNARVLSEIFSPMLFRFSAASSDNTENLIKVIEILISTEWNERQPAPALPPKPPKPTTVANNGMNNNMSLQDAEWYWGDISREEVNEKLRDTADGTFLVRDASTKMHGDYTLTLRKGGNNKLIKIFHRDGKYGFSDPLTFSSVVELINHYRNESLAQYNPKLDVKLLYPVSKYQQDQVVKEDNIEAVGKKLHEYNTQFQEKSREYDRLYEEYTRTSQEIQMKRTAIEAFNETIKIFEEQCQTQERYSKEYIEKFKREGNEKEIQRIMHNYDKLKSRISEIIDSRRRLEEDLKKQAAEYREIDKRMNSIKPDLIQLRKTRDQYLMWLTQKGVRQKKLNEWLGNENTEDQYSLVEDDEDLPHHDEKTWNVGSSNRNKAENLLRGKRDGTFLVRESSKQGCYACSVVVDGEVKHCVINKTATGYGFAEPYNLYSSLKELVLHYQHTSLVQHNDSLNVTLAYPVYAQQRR

| Structure (SMILES) | pIC50 |
| --- | --- |
| Cc1c(Nc2cnc3ccccc3c2)nc(N2CCOCC2)nc1-c1cnc(N)cc1C(F)(F)F [Compound 469] | > 6.00 |

same assay, conditions: ATP depletion assay, Biological Method 1; read-out: PI3 Kinase Alpha, IC50

| Structure (SMILES) | pIC50 |
| --- | --- |
| Nc1ncc(-c2cc(N[C@H]3CCCC[C@@H]3OCc3ccccc3)nc(N3CCOCC3)n2)cn1 [Compound 395] | > 6.00 |
| Nc1ccc(-c2cc(Nc3cccc4c3OCCO4)nc(N3CCOCC3)n2)cn1 [Compound 389] | > 6.00 |
| CS(=O)(=O)c1ccccc1Nc1cc(-c2cnc(N)cc2C(F)(F)F)nc(N2CCOCC2)n1 [Compound 240] | > 6.00 |
| Nc1cc(C(F)(F)F)c(-c2cc(N3CCOC4(CCCC4)C3)nc(N3CCOCC3)n2)cn1 [Compound 319] | > 6.00 |
| Nc1ccc(-c2cc(-c3nnn[nH]3)nc(N3CCOCC3)n2)cn1 [Compound 309] | > 6.00 |
| Nc1ncc(-c2cc(Nc3cnc4ccccc4c3)nc(N3CCOCC3)n2)c(OCCN2CCNCC2)n1 [Compound 272] | > 6.00 |
| CN(c1cc(-c2ccc(N)nc2)nc(N2CCOCC2)n1)C1CCCCC1 [Compound 372] | > 5.00 |
| CN1CCC(Oc2ncccc2-c2cc(-c3ccc(N)nc3)nc(N3CCOCC3)n2)C1 (stereo not drawn) [Compound 288] | > 5.00 |
| Nc1ccc(-c2cc(-c3c[nH]nn3)nc(N3CCOCC3)n2)cn1 [Compound 310] | > 6.00 |
| Nc1ccc(-c2cc(Nc3ccccc3C(F)(F)F)nc(N3CCOCC3)n2)cn1 [Compound 379] | > 6.00 |
| Nc1ncc(-c2cc(N3CCC(C(F)(F)F)CC3)nc(N3CCOCC3)n2)cn1 [Compound 391] | > 6.00 |
| Nc1ccc(-c2cc(Sc3nc[nH]n3)nc(N3CCOCC3)n2)cn1 [Compound 292] | > 5.00 |
| Nc1ccc(-c2cc(N3CCc4ccccc4C3)nc(N3CCOCC3)n2)cn1 [Compound 375] | > 6.00 |
| Nc1cc(C(F)(F)F)c(-c2cc(Nc3cc(C(F)(F)F)ccn3)nc(N3CCOCC3)n2)cn1 [Compound 243] | > 6.00 |
| CN(C)CCOc1ccc(-c2cc(-c3ccc(N)nc3)nc(N3CCOCC3)n2)cn1 [Compound 225] | > 6.00 |
| Nc1ccc(-c2cc(N3CCCc4ccccc43)nc(N3CCOCC3)n2)cn1 [Compound 382] | > 6.00 |
| Nc1ccc(-c2cc(Nc3cccc4cn[nH]c34)nc(N3CCOCC3)n2)cn1 [Compound 346] | > 6.00 |
| Cn1cnnc1Sc1cc(-c2ccc(N)nc2)nc(N2CCOCC2)n1 [Compound 293] | > 5.00 |

| Structure (SMILES) | pIC50 |
| --- | --- |
| Nc1ncc(-c2cc(Nc3cnc4ccccc4c3)nc(N3CCOCC3)n2)cc1S(N)(=O)=O [Compound 222] | > 5.00 |
| Cc1cc(-c2cc(Nc3cnc4ccccc4c3)nc(N3CCOCC3)n2)cnc1N [Compound 365] | > 5.00 |
| Nc1ccc(-c2cc(N3CCOC(c4cccnc4)C3)nc(N3CCOCC3)n2)cn1 (stereo not drawn) [Compound 340] | > 6.00 |
| Nc1ccc(-c2cc(N3CCOC(C(=O)O)C3)nc(N3CCOCC3)n2)cn1 (stereo not drawn) [Compound 339] | > 5.00 |
| Nc1ccc(-c2cc(NC3CCCCC3)nc(N3CCOCC3)n2)cn1 [Compound 373] | > 5.00 |
| Nc1ccc(-c2cc(C(=O)N3CCNCC3)nc(N3CCOCC3)n2)cn1 [Compound 224] | > 5.00 |
| CN(C)c1cc(-c2ccc(N)nc2)nc(N2CCOCC2)n1 [Compound 370] | > 5.00 |
| Nc1ccc(-c2cc(Nc3cc4ccccc4nc3OCCN3CCCC3)nc(N3CCOCC3)n2)cn1 [Compound 286] | > 5.00 |
| Nc1ncc(-c2cc(C(=O)O)nc(N3CCOCC3)n2)cn1 [Compound 236] | > 6.00 |
| CC(=O)N1CCc2cccc(Nc3cc(-c4ccc(N)nc4)nc(N4CCOCC4)n3)c21 [Compound 354] | > 6.00 |
| COc1ccc(Nc2cc(-c3ccc(N)nc3)nc(N3CCOCC3)n2)cc1OC [Compound 388] | > 6.00 |
| CN1CCC(Oc2ccc(-c3cc(-c4ccc(N)nc4)nc(N4CCOCC4)n3)cn2)CC1 [Compound 226] | > 6.00 |
| Nc1ccc(-c2cc(NC(=O)C3CCCCC3)nc(N3CCOCC3)n2)cn1 [Compound 298] | > 6.00 |
| CC(=O)Nc1cnc(N2CCOCC2)nc1-c1cnc(N)nc1 [Compound 256] | > 6.00 |
| Nc1ccc(-c2cc(Nc3ccc4c(c3)NC(=O)CO4)nc(N3CCOCC3)n2)cn1 [Compound 381] | > 6.00 |
| Nc1ccc(-c2cc(Sc3ncc[nH]3)nc(N3CCOCC3)n2)cn1 [Compound 296] | > 5.00 |
| Nc1ccc(-c2cc(N3CCNC(=O)C3)nc(N3CCOCC3)n2)cn1 [Compound 376] | > 5.00 |
| Nc1ncc(-c2cc(N[C@@H]3CCCC[C@H]3OCc3ccccc3)nc(N3CCOCC3)n2)cn1 [Compound 397] | > 6.00 |

same assay, conditions: ATP depletion assay; read-out: PI3 Kinase Alpha, IC50

| Structure (SMILES) | pIC50 |
| --- | --- |
| CC(C)C(=O)N1CC[C@@H](Oc2cc(-c3cnc(N)cc3C(F)(F)F)nc(N3CCOCC3)n2)C1 [Compound 537] | > 6.00 |
| Nc1ccc(-c2cc(C(F)(F)F)nc(N3CCOCC3)n2)cn1 [Compound 471] | > 6.00 |
| Nc1cc(C(F)(F)F)c(-c2cc(O[C@@H]3CCN(C(=O)c4ccccc4)C3)nc(N3CCOCC3)n2)cn1 [Compound 536] | > 6.00 |
| Nc1ncc(-c2nc(N3CCOCC3)ncc2C(=O)O)cn1 [Compound 430] | > 5.00 |
| Nc1ccc(-c2cc(-c3ccc(NCCN4CCCC4)nc3)nc(N3CCOCC3)n2)cn1 [Compound 506] | > 6.00 |
| Nc1cc(C(F)(F)F)c(-c2cc(N3CCC(F)CC3)nc(N3CCOCC3)n2)cn1 [Compound 487] | > 6.00 |
| Nc1ccc(-c2cc(-c3cccnc3N3CCN(CCO)CC3)nc(N3CCOCC3)n2)cn1 [Compound 498] | > 5.00 |
| Nc1ccc(-c2ccnc(N3CCOCC3)n2)cn1 [Compound 513] | > 6.00 |
| Nc1ncc(-c2nc(N3CCOCC3)ncc2C(=O)NCC2CCCO2)cn1 (stereo not drawn) [Compound 421] | > 5.00 |
| Nc1cc(C(F)(F)F)c(-c2cc(CNC(=O)OC3CCOC3)nc(N3CCOCC3)n2)cn1 (stereo not drawn) [Compound 542] | > 6.00 |
| Nc1ccc(-c2cc(NCCc3ccccn3)nc(N3CCOCC3)n2)cn1 [Compound 433] | > 5.00 |
| CS(=O)(=O)Nc1cc(-c2ccc(N)nc2)nc(N2CCOCC2)n1 [Compound 510] | > 5.00 |
| CN(C)c1ncccc1-c1cc(-c2ccc(N)nc2)nc(N2CCOCC2)n1 [Compound 504] | > 5.00 |
| Nc1ccc(-c2cc(Nc3cnc4ccc(OC(F)(F)F)cc4c3)nc(N3CCOCC3)n2)cn1 [Compound 496] | > 6.00 |
| COc1ccc(Nc2cc(-c3ccc(N)nc3)nc(N3CCOCC3)n2)cn1 [Compound 2] | > 6.00 |
| Nc1ncc(-c2nc(N3CCOCC3)ncc2C(=O)N2CCOCC2)cn1 [Compound 429] | > 5.00 |
| Nc1ncc(-c2cc(O[C@@H]3CCCN(C(=O)c4ccc(F)cc4)C3)nc(N3CCOCC3)n2)c(N)n1 [Compound 525] | > 6.00 |
| Nc1ncc(-c2cc(N[C@H]3CN4CCC3CC4)nc(N3CCOCC3)n2)cn1 [Compound 519] | > 6.00 |
| Nc1ncc(-c2cc(N[C@@H]3CCC[C@H]3OCc3ccccc3)nc(N3CCOCC3)n2)cn1 [Compound 398] | > 6.00 |
| Nc1ccc(-c2cc(NCCc3cccnc3)nc(N3CCOCC3)n2)cn1 [Compound 434] | > 5.00 |
| CC(C)N1CCN(c2nc3ccccc3cc2-c2cc(-c3ccc(N)nc3)nc(N3CCOCC3)n2)CC1 [Compound 502] | > 5.00 |

| Structure (SMILES) | pIC50 |
| --- | --- |
| Nc1cc(C(F)(F)F)c(-c2cc(OC3CCNCC3)nc(N3CCOCC3)n2)cn1 [Compound 459] | > 6.00 |
| CS(=O)(=O)c1cccc(-c2cc(-c3cnc(N)cc3-c3nn[nH]n3)nc(N3CCOCC3)n2)c1 [Compound 414] | > 6.00 |
| CC(C)OC(=O)N1CC[C@@H](Oc2cc(-c3cnc(N)cc3C(F)(F)F)nc(N3CCOCC3)n2)C1 [Compound 538] | > 6.00 |
| Nc1cc(C(F)(F)F)c(-c2cc(N3CCOCC3c3ccccc3)nc(N3CCOCC3)n2)cn1 (stereo not drawn) [Compound 486] | > 6.00 |
| CC(C)N1CCN(c2ccc(-c3cc(-c4ccc(N)nc4)nc(N4CCOCC4)n3)cn2)CC1 [Compound 507] | > 6.00 |
| Nc1cc(C(F)(F)F)c(-c2cc(O[C@@H]3CCN(C(=O)OCc4ccccc4)C3)nc(N3CCOCC3)n2)cn1 [Compound 535] | > 6.00 |
| Cc1c(-c2cnc(N)nc2)nc(N2CCOCC2)nc1-c1ccccc1S(=O)(=O)NC(C)(C)C [Compound 547] | > 5.00 |
| CC(C)(C)OC(=O)N1CCC[C@@H](Oc2cc(-c3cnc(N)cc3C(F)(F)F)nc(N3CCOCC3)n2)C1 [Compound 21] | > 6.00 |
| CN(C)CCCCNc1cc(-c2cnc(N)nc2)nc(N2CCOCC2)n1 [Compound 517] | > 5.00 |
| CS(=O)(=O)Nc1cc(N)ncc1-c1cc(Nc2cnc3ccccc3c2)nc(N2CCOCC2)n1 [Compound 492] | > 6.00 |
| Cc1nc(N)ncc1-c1cc(Cl)nc(N2CCOCC2)n1 [Compound 479] | > 6.00 |
| Nc1ccc(-c2nc(N3CCOCC3)ncc2C(F)(F)F)cn1 [Compound 473] | > 5.00 |
| Nc1ccc(-c2cc(Nc3cnc4c(Cl)ccc(OCCN5CCCC5=O)c4c3)nc(N3CCOCC3)n2)cn1 [Compound 493] | > 6.00 |
| Nc1ncc(-c2nc(N3CCOCC3)ncc2C(=O)NC2CCOCC2)cn1 [Compound 426] | > 5.00 |
| CC(C)C(=O)N1CC[C@H](Oc2cc(-c3cnc(N)cc3C(F)(F)F)nc(N3CCOCC3)n2)C1 [Compound 533] | > 5.00 |
| CC(=O)NCCNC(=O)c1cnc(N2CCOCC2)nc1-c1cnc(N)nc1 [Compound 423] | > 5.00 |
| COCCNC(=O)c1cnc(N2CCOCC2)nc1-c1cnc(N)nc1 [Compound 424] | > 5.00 |
| Nc1ccc(-c2cc(NCCc3ccncc3)nc(N3CCOCC3)n2)cn1 [Compound 435] | > 5.00 |
| Nc1ccc(-c2cc(NCc3cccnc3)nc(N3CCOCC3)n2)cn1 [Compound 445] | > 6.00 |
| Nc1ccc(-c2cc(NCc3ccccn3)nc(N3CCOCC3)n2)cn1 [Compound 444] | > 6.00 |
